The values below come from US10081624B2, “Heterocyclic compound” (Takeda Pharmaceutical Company Limited, priority 2014, dated 2018).

SMILES strings stand for the structures. “Also recorded” adds a separate entry of the source.

One assay deals with T1, HDAC1 enzyme (Homo sapiens, UniProt Q13547).
T1 construct: prepared by transducing full length HDAC1 and HDAC6 genes into Sf-9 insect cells; GST; purchased SignalChem; host or cells: Sf-9 insect cells
Kind of assay: HDAC1 enzyme inhibitory assay (HDAC-Glo I/II Assay kit). The settings on record: 1 μM test compound; for inhibition at 1 µM: read-out: HDAC1 inhibitory rate (%) (1 μM). In kind it is biochemical. In outline: (§1)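 Luminescence read-out: 20 min after adding HDAC-Glo substrate-developer at room temperature. Before that, compound and Sf-9-expressed, GST-purified full-length HDAC1 or HDAC6 sat together 60 min in pH 7.5 Tris buffer. Inhibition is relative to no-enzyme wells taken as 100%.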

The target in the next assay is T2, HDAC6 enzyme (Homo sapiens, UniProt Q9UBN7).
T2 construct: prepared by transducing full length HDAC1 and HDAC6 genes into Sf-9 insect cells; GST; purchased SignalChem; host or cells: Sf-9 insect cells
T2 sequence (Q9UBN7 1-1215): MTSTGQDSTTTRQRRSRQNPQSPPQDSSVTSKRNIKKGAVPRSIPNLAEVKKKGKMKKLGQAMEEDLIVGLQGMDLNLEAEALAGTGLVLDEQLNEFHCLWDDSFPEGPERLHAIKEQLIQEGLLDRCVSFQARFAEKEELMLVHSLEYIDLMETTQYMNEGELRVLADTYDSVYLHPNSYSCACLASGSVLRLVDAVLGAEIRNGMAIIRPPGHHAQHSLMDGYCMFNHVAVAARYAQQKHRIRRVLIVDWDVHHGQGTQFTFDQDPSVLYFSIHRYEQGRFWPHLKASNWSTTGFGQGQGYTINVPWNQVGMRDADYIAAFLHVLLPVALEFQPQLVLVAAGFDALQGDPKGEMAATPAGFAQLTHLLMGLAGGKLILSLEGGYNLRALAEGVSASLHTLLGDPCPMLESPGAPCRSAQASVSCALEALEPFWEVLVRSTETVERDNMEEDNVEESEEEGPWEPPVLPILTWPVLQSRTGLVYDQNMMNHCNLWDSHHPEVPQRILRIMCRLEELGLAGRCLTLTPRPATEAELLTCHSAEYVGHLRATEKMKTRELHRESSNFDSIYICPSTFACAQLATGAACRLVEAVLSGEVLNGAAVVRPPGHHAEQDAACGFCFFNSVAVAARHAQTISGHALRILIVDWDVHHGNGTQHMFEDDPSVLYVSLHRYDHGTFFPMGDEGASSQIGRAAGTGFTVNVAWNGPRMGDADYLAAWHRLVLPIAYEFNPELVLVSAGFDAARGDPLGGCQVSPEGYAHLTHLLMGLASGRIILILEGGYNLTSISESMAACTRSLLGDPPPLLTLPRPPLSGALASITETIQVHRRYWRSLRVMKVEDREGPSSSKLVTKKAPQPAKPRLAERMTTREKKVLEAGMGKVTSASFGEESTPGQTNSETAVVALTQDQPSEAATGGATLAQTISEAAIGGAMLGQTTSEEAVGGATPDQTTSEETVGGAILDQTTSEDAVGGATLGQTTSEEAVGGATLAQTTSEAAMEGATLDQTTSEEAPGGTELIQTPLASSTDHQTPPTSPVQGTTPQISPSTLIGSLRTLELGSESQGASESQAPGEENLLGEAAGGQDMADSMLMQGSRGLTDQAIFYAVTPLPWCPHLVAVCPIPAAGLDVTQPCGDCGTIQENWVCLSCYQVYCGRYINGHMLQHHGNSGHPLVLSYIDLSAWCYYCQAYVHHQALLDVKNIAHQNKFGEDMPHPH
In words: HDAC6 enzyme inhibitory assay (HDAC-Glo I/II Assay kit). In kind it is biochemical. The settings on record: 1 μM test compound; for inhibition at 1 µM: read-out: HDAC6 inhibitory rate (%) (1 μM). In outline:
as §1

The test system of a further assay is acetylated tubulin. Kind of assay: Measurement of acetylated tubulin in spleen after oral administration (Western blotting). It counts as in vivo. To be noted: BALE/c mice, female, 30 mg/kg orally. Here is the method: Compound A (compound of Example 36) and compound B (compound of Example 37) were each orally administered to BALE/c mice (female, Charles River Japan, 8-weeks old when used) at a dose of 30 mg/kg. Compound A and compound B were each suspended in 0.5% methyl cellulose solution, and the suspensions were each orally administered at a dose of 10 mL/kg. For control group, 0.5% methyl cellulose solution was administered. After administration, a part (about 30 mg) of the spleen was recovered into tube containing beads (Lysing Matrix I, Cat. 6918-100, MP Biomedicals), and cryopreserved at −80° C. until used.
0.5 mL RIPA buffer containing protease inhibitor (Cat. 25955-11, Nacalai tesque) was added to the spleen placed in Lysing Matrix I tube, and the spleen was crushed over 20 sec by FastPrep-24. The sample tube was centrifuged (15,000 rpm, 4° C.,) for 5 min, and the supernatant was transferred to another tube. […] The protein amount of the sample was measured using BCA protein assay kit (Cat. 23227, Pierce). […]
The membrane was immersed in blocking reagent (Cat. NYPBR01, TOYOBO) at room temperature for 1 hr, washed, and reacted with primary antibody overnight at 4° C. After washed, the membrane was reacted with secondary antibody at room temperature for 1 hr, and immersed in ECL prime detecting solution (Cat. RPN2232, GE), and the chemiluminescence was detected by luminoimage analyzer LAS3000. […]

T1 sequence (Q13547 whole entry): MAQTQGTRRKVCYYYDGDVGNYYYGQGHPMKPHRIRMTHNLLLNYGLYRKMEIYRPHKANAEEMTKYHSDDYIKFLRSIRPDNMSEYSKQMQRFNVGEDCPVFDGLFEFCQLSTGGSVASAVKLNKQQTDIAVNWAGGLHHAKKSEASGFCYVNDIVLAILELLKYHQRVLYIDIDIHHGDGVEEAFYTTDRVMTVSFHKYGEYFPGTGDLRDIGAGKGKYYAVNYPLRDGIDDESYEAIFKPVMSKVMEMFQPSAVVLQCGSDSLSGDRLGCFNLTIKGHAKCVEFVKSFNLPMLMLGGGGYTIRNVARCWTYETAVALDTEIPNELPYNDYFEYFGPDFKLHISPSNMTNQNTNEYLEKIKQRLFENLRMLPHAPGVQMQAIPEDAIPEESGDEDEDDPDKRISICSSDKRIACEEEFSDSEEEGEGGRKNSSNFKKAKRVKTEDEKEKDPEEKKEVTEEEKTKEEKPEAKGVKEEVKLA

For `O=C(NC[C@H]1COCCN1C(=O)N1CCC(CCO)C1)c1ccc(-c2noc(C(F)(F)F)n2)cc1` (stereo partly drawn) [Example 301, N-(((3S)-4-((3-(2-hydroxyethyl)pyrrolidin-1-yl)carbonyl)morpholin-3-yl)methyl)-4-(5-(trifluoromethyl)-1,2,4-oxadiazol-3-yl)benzamide], the “HDAC1 inhibitory rate (%) (1 μM)” value at HDAC1 enzyme (1 µM) is 3%. For the same molecule, the “HDAC6 inhibitory rate (%) (1 μM)” value at HDAC6 enzyme (1 µM) is given as 92%. Turning to `O=C(NC[C@H]1COCCN1C(=O)c1cccc(OCCO)c1)c1ccc(-c2noc(C(F)(F)F)n2)cc1` [Example 302, N-(((3S)-4-(3-(2-hydroxyethoxy)benzoyl)morpholin-3-yl)methyl)-4-(5-(trifluoromethyl)-1,2,4-oxadiazol-3-yl)benzamide], the inhibition at 1 µM at HDAC1 enzyme worked out at 10%; at HDAC6 enzyme, 98%. As for `O=C(NC[C@H]1COCCN1C(=O)N1CCCCC1CO)c1ccc(-c2noc(C(F)(F)F)n2)cc1` (stereo partly drawn) [Example 303, N-(((3S)-4-((2-(hydroxymethyl)piperidin-1-yl)carbonyl)morpholin-3-yl)methyl)-4-(5-(trifluoromethyl)-1,2,4-oxadiazol-3-yl)benzamide], the figures for the inhibition at 1 µM at HDAC1 enzyme and on HDAC6 enzyme were 8% and 99%, respectively. In the case of `O=C(NC[C@H]1COCCN1C(=O)N1CCCCC1CO)c1ccc(-c2noc(C(F)(F)F)n2)cc1` (stereo partly drawn) [Example 304, N-(((3S)-4-((2-(hydroxymethyl)piperidin-1-yl)carbonyl)morpholin-3-yl)methyl)-4-(5-(trifluoromethyl)-1,2,4-oxadiazol-3-yl)benzamide], on HDAC1 enzyme (1 µM), the “HDAC1 inhibitory rate (%) (1 μM)” value is on record as 9%. The “HDAC6 inhibitory rate (%) (1 μM)” value at HDAC6 enzyme is reported as 99%. On to `O=C(NC[C@H]1COCCN1C(=O)N1CCCC1CCO)c1ccc(-c2noc(C(F)(F)F)n2)cc1` (stereo partly drawn) [Example 305, N-(((3S)-4-((2-(2-hydroxyethyl)pyrrolidin-1-yl)carbonyl)morpholin-3-yl)methyl)-4-(5-(trifluoromethyl)-1,2,4-oxadiazol-3-yl)benzamide], for which the inhibition at 1 µM on HDAC1 enzyme was found to be 5%; at HDAC6 enzyme it was 99%. As to `O=C(NC[C@H]1COCCN1C(=O)N1CCCC1CCO)c1ccc(-c2noc(C(F)(F)F)n2)cc1` (stereo partly drawn) [Example 306, N-(((3S)-4-((2-(2-hydroxyethyl)pyrrolidin-1-yl)carbonyl)morpholin-3-yl)methyl)-4-(5-(trifluoromethyl)-1,2,4-oxadiazol-3-yl)benzamide], the “HDAC1 inhibitory rate (%) (1 μM)” value on HDAC1 enzyme was found to be 5%. For the same molecule, the “HDAC6 inhibitory rate (%) (1 μM)” value on HDAC6 enzyme (1 µM) worked out at 88%. Consider `O=C(NC[C@H]1COCCN1C(=O)N1CCCC(F)(F)C1)c1ccc(-c2noc(C(F)(F)F)n2)cc1` [Example 307, N-(((3S)-4-((3,3-difluoropiperidin-1-yl)carbonyl)morpholin-3-yl)methyl)-4-(5-(trifluoromethyl)-1,2,4-oxadiazol-3-yl)benzamide], for which the inhibition at 1 µM is 9% on HDAC1 enzyme and 98% at HDAC6 enzyme. For the molecule `Cc1oc2ccccc2c1C(=O)N1CCOC[C@@H]1CNC(=O)c1ccc(-c2noc(C(F)(F)F)n2)cc1` [Example 308, N-(((3S)-4-((2-methyl-1-benzofuran-3-yl)carbonyl)morpholin-3-yl)methyl)-4-(5-(trifluoromethyl)-1,2,4-oxadiazol-3-yl)benzamide], the inhibition at 1 µM at HDAC1 enzyme was determined as 46%; on HDAC6 enzyme it was 100%. In the case of `O=C(NC[C@H]1COCCN1C(=O)N1CC2C(C1)C2(F)F)c1ccc(-c2noc(C(F)(F)F)n2)cc1` (stereo partly drawn) [Example 309, N-(((3S)-4-((6,6-difluoro-3-azabicyclo[3.1.0]hex-3-yl)carbonyl)morpholin-3-yl)methyl)-4-(5-(trifluoromethyl)-1,2,4-oxadiazol-3-yl)benzamide], the figures for the inhibition at 1 µM at HDAC1 enzyme and at HDAC6 enzyme were 4% and 96%, respectively. Consider `O=C(NC[C@H]1COCCN1C(=O)N1CCOCC1CO)c1ccc(-c2noc(C(F)(F)F)n2)cc1` (stereo partly drawn) [Example 310, N-(((3S)-4-((3-(hydroxymethyl)morpholin-4-yl)carbonyl)morpholin-3-yl)methyl)-4-(5-(trifluoromethyl)-1,2,4-oxadiazol-3-yl)benzamide], for which the “HDAC1 inhibitory rate (%) (1 μM)” value on HDAC1 enzyme (1 µM) is on record as 3%. On HDAC6 enzyme, the inhibition at 1 µM is 98%. For the molecule `O=C(NC[C@H]1COCCN1C(=O)N1CCOCC1CO)c1ccc(-c2noc(C(F)(F)F)n2)cc1` (stereo partly drawn) [Example 311, N-(((3S)-4-((3-(hydroxymethyl)morpholin-4-yl)carbonyl)morpholin-3-yl)methyl)-4-(5-(trifluoromethyl)-1,2,4-oxadiazol-3-yl)benzamide], the “HDAC1 inhibitory rate (%) (1 μM)” value at HDAC1 enzyme (1 µM) stood at 7%. The “HDAC6 inhibitory rate (%) (1 μM)” value at HDAC6 enzyme (1 µM) was 96%. Consider `O=C(NC[C@H]1COCCN1C(=O)c1ccccc1)c1ccc(-c2noc(C(F)(F)F)n2)cc1` [compound A, N-(((3S)-4-benzoylmorpholin-3-yl)methyl)-4-(5-(trifluoromethyl)-1,2,4-oxadiazol-3-yl)benzamide], for which, in the assay with acetylated tubulin, the “acetylation of tubulin in spleen (protein expression level of acetylated tubulin, fold increase relative to 0.5% methyl cellulose solution administration group)” value is “increase in acetylated tubulin; also recorded: increased most acetylation of tubulin in spleen 8 hr after administration”. `O=C(NC[C@H]1COCCN1C(=O)c1cc(Cl)cc(Cl)c1)c1ccc(-c2noc(C(F)(F)F)n2)cc1` [compound B, N-(((3S)-4-(3,5-dichlorobenzoyl)morpholin-3-yl)methyl)-4-(5-(trifluoromethyl)-1,2,4-oxadiazol-3-yl)benzamide]: the “acetylation of tubulin in spleen (protein expression level of acetylated tubulin, fold increase relative to 0.5% methyl cellulose solution administration group)” value in the assay on acetylated tubulin was “increase in acetylated tubulin; also recorded: increased most acetylation of tubulin in spleen 8 hr after administration”.
